Literature values, collected in patent US20160310525A1, “PREPARATION FOR PREVENTION AND/OR TREATMENT OF PERI-IMPLANTITIS” (RLS GLOBAL AB, priority 2013, published 2016).

System: biofilm on titan specimens

For `OCl` [sodium hypochlorite], the “antimicrobial effect on biofilm” value is given as “effective”.
